# From patent US20240390350A1, “PHENYL CORE COMPOUNDS AS MGLU5 NEGATIVE ALLOSTERIC MODULATORS AND METHODS OF MAKING AND USING THE SAME” (Vanderbilt University, priority 2021, published 2024)
# pIC50: −log10 of the molar value.
# Molecular target: T1, human mGlu5 (Homo sapiens, UniProt P41594)
# T1 construct: expressed in transfected cells; host or cells: HEK 293A
# Assay: mGlu5 negative allosteric modulator Ca2+ flux assay in HEK 293A cells (Table 1)
# Format: cell-based
# Settings: HEK 293A cells stably expressing mGlu5; Ca2+ flux (Fluo-4); decrease of glutamate EC80 response; read-out: hmGlu5 NAM IC50
# T1 sequence (P41594 21-1212): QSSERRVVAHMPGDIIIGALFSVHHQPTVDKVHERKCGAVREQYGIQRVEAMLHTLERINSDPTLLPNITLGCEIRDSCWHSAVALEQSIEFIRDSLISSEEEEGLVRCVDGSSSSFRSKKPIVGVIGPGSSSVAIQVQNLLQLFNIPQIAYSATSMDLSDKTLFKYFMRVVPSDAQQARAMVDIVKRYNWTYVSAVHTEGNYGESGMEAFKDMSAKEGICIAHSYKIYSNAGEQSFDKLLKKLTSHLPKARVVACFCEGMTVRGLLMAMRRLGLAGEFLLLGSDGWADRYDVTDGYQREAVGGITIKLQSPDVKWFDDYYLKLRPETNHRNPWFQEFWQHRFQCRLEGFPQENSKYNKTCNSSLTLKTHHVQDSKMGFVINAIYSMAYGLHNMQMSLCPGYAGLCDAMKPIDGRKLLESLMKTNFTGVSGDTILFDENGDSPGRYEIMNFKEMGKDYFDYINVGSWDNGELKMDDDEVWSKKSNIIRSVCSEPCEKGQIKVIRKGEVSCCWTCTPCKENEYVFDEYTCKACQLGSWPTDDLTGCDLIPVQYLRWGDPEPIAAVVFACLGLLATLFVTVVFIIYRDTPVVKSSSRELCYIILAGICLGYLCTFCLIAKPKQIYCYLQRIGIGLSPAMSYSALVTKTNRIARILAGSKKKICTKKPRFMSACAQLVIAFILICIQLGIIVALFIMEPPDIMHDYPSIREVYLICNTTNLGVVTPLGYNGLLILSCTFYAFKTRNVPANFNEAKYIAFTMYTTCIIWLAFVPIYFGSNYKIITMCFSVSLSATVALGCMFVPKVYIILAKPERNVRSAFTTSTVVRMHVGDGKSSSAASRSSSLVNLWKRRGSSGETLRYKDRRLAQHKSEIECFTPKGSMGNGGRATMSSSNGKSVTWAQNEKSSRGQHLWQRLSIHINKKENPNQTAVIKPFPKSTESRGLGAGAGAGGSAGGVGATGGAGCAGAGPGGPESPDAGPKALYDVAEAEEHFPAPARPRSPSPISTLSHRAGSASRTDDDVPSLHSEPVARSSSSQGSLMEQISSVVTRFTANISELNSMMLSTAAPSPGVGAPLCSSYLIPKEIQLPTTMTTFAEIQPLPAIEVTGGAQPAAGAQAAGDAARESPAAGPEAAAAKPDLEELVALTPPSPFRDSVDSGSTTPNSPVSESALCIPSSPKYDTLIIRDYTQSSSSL
row,SMILES,pIC50
1,"Cc1csc(NC(=O)c2cc(F)c(F)c(-c3cnccc3C)c2)n1 [Compound 51, 3,4-difluoro-5-(4-methylpyridin-3-yl)-N-(4-methylthiazol-2-yl)benzamide]",6.36
2,"Cc1csc(NC(=O)c2cc(-c3cnccc3C)cc(C(F)(F)F)c2)n1 [Compound 18, 3-(4-methylpyridin-3-yl)-N-(4-methylthiazol-2-yl)-5-(trifluoromethyl)benzamide]",< 5.00
3,"Cc1csc(NC(=O)c2cc(-c3cncc(F)c3)cc(F)c2F)n1 [Compound 40, 2,3-difluoro-5-(5-fluoropyridin-3-yl)-N-(4-methylthiazol-2-yl)benzamide]",7.03
4,"Cc1cc(C(=O)Nc2nc(C)cs2)cc(-c2cnccc2C)c1 [Compound 7, 3-Methyl-5-(4-methylpyridin-3-yl)-N-(4-methylthiazol-2-yl)benzamidecarboxamide]",6.90
5,"Cc1csc(NC(=O)c2cc(C#N)cc(-c3cnccc3C)c2)n1 [Compound 22, 3-cyano-5-(4-methylpyridin-3-yl)-N-(4-methylthiazol-2-yl)benzamide]",6.70
6,"Cn1cncc1-c1cc(F)cc(C(=O)Nc2ccc(F)cn2)c1 [Compound 27, 3-fluoro-N-(5-fluoropyridin-2-yl)-5-(1-methyl-1H-imidazol-5-yl)benzamide]",< 5.00
7,"O=C(Nc1cccc(Cl)n1)c1cc(-c2cncc(F)c2)cc(F)c1F [Compound 42, N-(6-chloropyridin-2-yl)-2,3-difluoro-5-(5-fluoropyridin-3-yl)benzamide]",6.71
8,"Cc1ncc(-c2cc(F)c(F)c(C(=O)Nc3ccc(F)cn3)c2)s1 [Compound 35, 2,3-difluoro-N-(5-fluoropyridin-2-yl)-5-(2-methylthiazol-5-yl)benzamide]",5.38

# More lines, now with the values ahead:
row,pIC50,SMILES
1,6.44,"Cc1cccc(NC(=O)c2cc(-c3cnccc3C)ccc2F)n1 [Compound 13, 2-fluoro-N-(6-methylpyridin-2-yl)-5-(4-methylpyridin-3-yl)benzamide]"
2,5.46,"Cc1nn(C)cc1-c1cc(F)c(F)c(C(=O)Nc2ccc(F)cn2)c1 [Compound 33, 5-(1,3-dimethyl-1H-pyrazol-4-yl)-2,3-difluoro-N-(5-fluoropyridin-2-yl)benzamide]"
3,6.98,"Cc1cccc(NC(=O)c2cc(-c3cnccc3C)c(F)cc2F)n1 [Compound 47, 2,4-difluoro-N-(6-methylpyridin-2-yl)-5-(4-methylpyridin-3-yl)benzamide]"
4,6.17,"Cc1ccncc1-c1cc(C(=O)Nc2ccc(Cl)cn2)cc(F)c1F [Compound 31, N-(5-chloropyridin-2-yl)-3,4-difluoro-5-(4-methylpyridin-3-yl)benzamide]"
5,5.72,"Cc1ccncc1-c1ccc(F)c(C(=O)Nc2ccccn2)c1 [Compound 11, 2-fluoro-5-(4-methylpyridin-3-yl)-N-(pyridin-2-yl)benzamide]"
6,5.65,"Cc1ccncc1-c1cc(C(=O)Nc2ccc(F)cn2)cc(F)c1F [Compound 29, 3,4-difluoro-N-(5-fluoropyridin-2-yl)-5-(4-methylpyridin-3-yl)benzamide]"
7,5.73,"Cc1ccncc1-c1cc(Cl)cc(C(=O)Nc2ccc(F)cn2)c1 [Compound 17, 3-chloro-N-(5-fluoropyridin-2-yl)-5-(4-methylpyridin-3-yl)benzamide]"
8,< 5.00,"Cc1ccncc1-c1cc(F)c(F)c(C(=O)Nc2ccccn2)c1 [Compound 8, 2,3-difluoro-5-(4-methylpyridin-3-yl)-N-(pyridin-2-yl)benzamide]"
